This is an account of results in patent US9156796B2, “Benzoimidazole-carboxylic acid amide derivatives as APJ receptor modulators” (SANOFI, priority 2013, dated 2015).

In the assay the target is T1, human apelin receptor (Homo sapiens, UniProt P35414).
T1 construct: expressed in transfected cells
T1 sequence (P35414 1-380): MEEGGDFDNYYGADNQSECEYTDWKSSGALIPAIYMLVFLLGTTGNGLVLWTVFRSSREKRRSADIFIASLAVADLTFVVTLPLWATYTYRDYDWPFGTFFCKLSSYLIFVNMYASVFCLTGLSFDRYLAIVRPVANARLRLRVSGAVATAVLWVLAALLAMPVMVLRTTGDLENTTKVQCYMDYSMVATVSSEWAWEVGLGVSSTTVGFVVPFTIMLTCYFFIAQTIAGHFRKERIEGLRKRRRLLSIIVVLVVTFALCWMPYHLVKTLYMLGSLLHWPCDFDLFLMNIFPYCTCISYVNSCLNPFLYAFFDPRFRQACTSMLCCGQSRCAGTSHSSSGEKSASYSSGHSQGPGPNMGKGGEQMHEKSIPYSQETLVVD
Nature of the assay: Determination of agonism on the human apelin receptor by a calcium fluorescence assay (FLIPR). The class given is cell-based. The following applies: HEK293 cells stably transfected with human apelin receptor and Giaq protein, Fluo-4 calcium fluorescence, read-out: EC50 (APJ agonism). An outline of the steps: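 Agonist EC50s come from peak intracellular calcium transients recorded by FLIPR Tetra, scaled to the 1 μM apelin-13 maximum per plate. Test system: HEK293 stably transfected with human apelin receptor plus Giaq, Fluo-4-loaded (4 μM, 1 h, 37 °C, pH 7.4 buffer with probenecid); ≥7 concentrations, triplicates.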

Take `CCC(CC)n1c(Cc2cccs2)nc2cc(C(=O)N[C@@H](CC(C)C)C(=O)NCCc3cccs3)ccc21` [Example 223, 1-(1-Ethyl-propyl)-2-thiophen-2-ylmethyl-1H-benzoimidazole-5-carboxylic acid [(S)-3-methyl-1-(2-thiophen-2-yl-ethylcarbamoyl)-butyl]-amide]: the EC50 was found to be 6.96 µM.

On to `CCC(CC)n1c(Cc2cccs2)nc2cc(C(=O)N[C@@H](CC(C)C)C(=O)NCc3ccccc3)ccc21` [Example 220, 1-(1-Ethyl-propyl)-2-thiophen-2-ylmethyl-1H-benzoimidazole-5-carboxylic acid ((S)-1-benzylcarbamoyl-3-methyl-butyl)-amide], for which the EC50 was 2.86 µM.

As for `CC(C)C[C@H](NC(=O)c1ccc2c(c1)nc(Cc1cccs1)n2C1CCCC1C)C(=O)O` (single isomer, unassigned) [Example 431], the EC50 amounted to 3.47 µM.

In the case of `CCC(C)Cn1c(CC2CCCCC2)nc2cc(C(=O)N[C@@H](CC(C)C)C(=O)O)ccc21` (stereo partly drawn) [Example 135, (S)-2-{[2-Cyclohexylmethyl-1-(2-methyl-butyl)-1H-benzoimidazole-5-carbonyl]-amino}-4-methyl-pentanoic acid], the EC50 is 3.8 µM.

For `CCC(CC)n1c(Cc2cccs2)nc2cc(C(=O)N[C@@H](CC(C)C)C(=O)NC3COC4(CCCC4)C3)ccc21` (stereo partly drawn) [Example 398, 1-(1-Ethyl-propyl)-2-thiophen-2-ylmethyl-1H-benzoimidazole-5-carboxylic acid [(S)-3-methyl-1-(1-oxa-spiro[4.4]non-3-ylcarbamoyl)-butyl]-amide], the concentration giving a half-maximal response (EC50) came out at 5.46 µM.

Turning to `CCC(CC)n1c(Cc2cccs2)nc2cc(C(=O)N[C@@H](CC(C)C)[C@H](O)C(=O)O)ccc21` [Example 68, (2S,3S)-3-{[1-(1-Ethyl-propyl)-2-thiophen-2-ylmethyl-1H-benzoimidazole-5-carbonyl]-amino}-2-hydroxy-5-methyl-hexanoic acid], the EC50 turned out to be 0.018 µM.

Turning to `CCC(CC)n1c(Cc2cccs2)nc2cc(C(=O)N[C@@H](CC(C)C)C(=O)NCC3CCN(C(C)c4ccccc4)C3)ccc21` (stereo partly drawn) [Example 353, 1-(1-Ethyl-propyl)-2-thiophen-2-ylmethyl-1H-benzoimidazole-5-carboxylic acid ((S)-3-methyl-1-{[1-(1-phenyl-ethyl)-pyrrolidin-3-ylmethyl]-carbamoyl}-butyl)-amide], the EC50 was determined as 0.787 µM.

`CCC(CC)n1c(Cc2cscn2)nc2cc(C(=O)N[C@@H](CC(C)C)C(=O)O)ccc21` [Example 84, (S)-2-{[1-(1-Ethyl-propyl)-2-thiazol-4-ylmethyl-1H-benzoimidazole-5-carbonyl]-amino}-4-methyl-pentanoic acid]: the EC50 is 2.95 µM.

On to `CCC(CC)n1c(Cc2cccs2)nc2cc(C(=O)N[C@@H](CC(C)C)C(=O)Nc3ccc(CN4CCC(C)CC4)cc3)ccc21` [Example 283, 1-(1-Ethyl-propyl)-2-thiophen-2-ylmethyl-1H-benzoimidazole-5-carboxylic acid {(S)-3-methyl-1-[4-(4-methyl-piperidin-1-ylmethyl)-phenylcarbamoyl]-butyl}-amide], for which the EC50 came to 4.5 µM.

For `CCC(CC)n1c(Cc2cccs2)nc2cc(C(=O)N[C@@H](CC(C)C)C(=O)N3CCCN(Cc4ccc(F)cc4)CC3)ccc21` [Example 324, 1-(1-Ethyl-propyl)-2-thiophen-2-ylmethyl-1H-benzoimidazole-5-carboxylic acid {(S)-1-[4-(4-fluoro-benzyl)-[1,4]diazepane-1-carbonyl]-3-methyl-butyl}-amide], the EC50 was 16.8 µM.

In the case of `CCC(CC)n1c(Cc2cccs2)nc2cc(C(=O)NC3(CO)CCCC3)ccc21` [Example 193, 1-(1-Ethyl-propyl)-2-thiophen-2-ylmethyl-1H-benzoimidazole-5-carboxylic acid (1-hydroxymethyl-cyclopentyl)-amide], the half-maximal effective concentration (EC50) amounted to 6.22 µM.

As to `CCC(CC)n1c(Cc2cccs2)nc2cc(C(=O)N[C@@H](CC(C)C)C(=O)Nc3ccc(F)cc3)ccc21` [Example 228, 1-(1-Ethyl-propyl)-2-thiophen-2-ylmethyl-1H-benzoimidazole-5-carboxylic acid [(S)-1-(4-fluoro-phenylcarbamoyl)-3-methyl-butyl]-amide], the EC50 came out at 8.5 µM.

`CC1CCCCC1n1c(Cc2cccs2)nc2cc(C(=O)N[C@@H](CC3CCCCC3)C(=O)O)ccc21` (single isomer, unassigned) [Example 427]: the EC50 was found to be 1.32 µM.

Take `CCC(CC)n1c(Cc2cccs2)nc2cc(C(=O)N[C@@H](CC(C)C)C(=O)N3CC[C@H](N(C)C)C3)ccc21` [Example 322, 1-(1-Ethyl-propyl)-2-thiophen-2-ylmethyl-1H-benzoimidazole-5-carboxylic acid [(S)-1-((S)-3-dimethylamino-pyrrolidine-1-carbonyl)-3-methyl-butyl]-amide]: the EC50 was found to be 0.244 µM.

For `CCC(CC)n1c(Cc2cccs2)nc2cc(C(=O)N[C@@H](Cc3ccccc3)C(=O)O)ccc21` [Example 124, (S)-2-{[1-(1-Ethyl-propyl)-2-thiophen-2-ylmethyl-1H-benzoimidazole-5-carbonyl]-amino}-3-phenyl-propionic acid], the EC50 is 9.35 µM.

For `CCC(CC)n1c(Cc2cccs2)nc2cc(C(=O)NC(CCC(F)(F)F)C(=O)O)ccc21` (stereo not drawn) [Example 26, 2-{[1-(1-Ethyl-propyl)-2-thiophen-2-ylmethyl-1H-benzoimidazole-5-carbonyl]-amino}-5,5,5-trifluoro-pentanoic acid], the EC50 was found to be 5.3 µM.

Take `CCC(CC)n1c(Cc2cccs2)nc2cc(C(=O)N[C@@H](CC(C)C)C(=O)NCC3CN(Cc4ccc(F)cc4)CCO3)ccc21` (stereo partly drawn) [Example 356, 1-(1-Ethyl-propyl)-2-thiophen-2-ylmethyl-1H-benzoimidazole-5-carboxylic acid ((S)-1-{[4-(4-fluoro-benzyl)-morpholin-2-ylmethyl]-carbamoyl}-3-methyl-butyl)-amide]: the EC50 was determined as 4.26 µM.

As for `CCC(CC)n1c(Cc2cccs2)nc2cc(C(=O)N[C@@H](CC(C)C)C(=O)N(C)Cc3ccccc3)ccc21` [Example 263, 1-(1-Ethyl-propyl)-2-thiophen-2-ylmethyl-1H-benzoimidazole-5-carboxylic acid [(S)-1-(benzyl-methyl-carbamoyl)-3-methyl-butyl]-amide], the EC50 was 4.3 µM.

As for `CCC(CC)n1c(Cc2cccs2)nc2cc(C(=O)N[C@@H](CC(C)C)C(=O)N3CCC[C@H]3C(=O)O)ccc21` [Example 409, (S)-1-((S)-2-{[1-(1-Ethyl-propyl)-2-thiophen-2-ylmethyl-1H-benzoimidazole-5-carbonyl]-amino}-4-methyl-pentanoyl)-pyrrolidine-2-carboxylic acid], the EC50 came to 0.491 µM.

For the compound `CC(C)C[C@H](NC(=O)c1ccc2c(c1)nc(Cc1cccs1)n2C1CCCCC1C)C(=O)O` (single isomer, unassigned) [Example 415], the EC50 was 0.532 µM.

As to `CCC(CC)n1c(Cc2cccs2)nc2cc(C(=O)N[C@@H](CC(C)C)C(=O)NCCCN3CCN(CC)CC3)ccc21` [Example 278, 1-(1-Ethyl-propyl)-2-thiophen-2-ylmethyl-1H-benzoimidazole-5-carboxylic acid {(S)-1-[3-{4-ethyl-piperazin-1-yl)-propylcarbamoyl]-3-methyl-butyl}-amide], the EC50 turned out to be 0.405 µM.
